Values joined by “and” are separate entries in the source; they are usually repeats but may differ in a detail not shown here. Identical values can stand only once. Toxic doses and inconclusive results are not listed. Rule as the data show it: active = T/C of 150% or more; inactive = T/C below 125%.
Test system: L1210 leukemia ip in BDF1 mice, survival T/C
Assay: NCI In Vivo Anticancer Drug Screen. Data for tumor model L1210 Leukemia (intraperitoneal) in B6D2F1 (BDF1) mice
Settings: endpoint: mean survival time, higher = longer survival
Outline: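 Transplanted-tumor mice were given test agent; controls received vehicle only. Survival readings from the two groups were divided (treated over control).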

[1] = dose: 100.0 mg/kg/injection, schedule: Q01DX001 (ip), vehicle: saline
[2] = dose: 200.0 mg/kg/injection, schedule: Q01DX001 (ip), vehicle: saline
[3] = dose: 400.0 mg/kg/injection, schedule: Q01DX001 (ip), vehicle: saline
[4] = dose: 100.0 mg/kg/injection, schedule: Q01DX009 (ip), vehicle: saline with Tween-80
[5] = dose: 100.0 mg/kg/injection, schedule: Q04DX003 (ip), vehicle: saline
[6] = dose: 200.0 mg/kg/injection, schedule: Q01DX009 (ip), vehicle: saline with Tween-80
[7] = dose: 200.0 mg/kg/injection, schedule: Q04DX003 (ip), vehicle: saline
[8] = dose: 400.0 mg/kg/injection, schedule: Q01DX009 (ip), vehicle: saline with Tween-80
[9] = dose: 400.0 mg/kg/injection, schedule: Q04DX003 (ip), vehicle: saline
[10] = dose: 100.0 mg/kg/injection, schedule: Q01DX001 (ip), vehicle: carboxymethylcellulose (CMC)
[11] = dose: 200.0 mg/kg/injection, schedule: Q01DX001 (ip), vehicle: carboxymethylcellulose (CMC)
[12] = dose: 400.0 mg/kg/injection, schedule: Q01DX001 (ip), vehicle: carboxymethylcellulose (CMC)

Measured: T/C

O=Cc1ccc(Oc2ccc([N+](=O)[O-])cc2[N+](=O)[O-])cc1
inactive: dose: 25.0 mg/kg/injection, schedule: Q01DX009 (ip), vehicle: water 96 % of control | dose: 50.0 mg/kg/injection, schedule: Q01DX009 (ip), vehicle: water 102 % of control | dose: 100.0 mg/kg/injection, schedule: Q01DX009 (ip), vehicle: water 104 % of control | dose: 200.0 mg/kg/injection, schedule: Q01DX009 (ip), vehicle: water 95 % of control | dose: 400.0 mg/kg/injection, schedule: Q01DX009 (ip), vehicle: water 98 % of control

CC(=O)NCCNC(C)=O
inactive: dose: 50.0 mg/kg/injection, schedule: Q01DX001 (ip), vehicle: saline 102 % of control | [1] 108 % of control | [2] 117 % of control | [3] 96 % of control

OCC(O)C(O)C(O)C(O)C(O)CO (centres undefined)
inactive: [1] 98 % of control | [4] 96 % of control | [5] 94 % of control | [2] 106 % of control | [6] 110 % of control | [7] 97 % of control | [3] 95 % of control | [8] 90 % of control | [9] 106 % of control

O=[N+]([O-])c1ccc(OC(=S)Oc2ccc([N+](=O)[O-])cc2)cc1
inactive: dose: 50.0 mg/kg/injection, schedule: Q01DX001 (ip), vehicle: carboxymethylcellulose (CMC) 103 % of control | [10] 105 % of control | [11] 97 % of control | [12] 100 % of control

CCOc1ccc(N=Nc2c(O)n(-c3ccccc3OC)c(=S)n(-c3ccccc3OC)c2=O)cc1
inactive: dose: 75.0 mg/kg/injection, schedule: Q01DX003 (ip), vehicle: Klucel (hydroxypropylcellulose) (HPC) 96 % of control | dose: 100.0 mg/kg/injection, schedule: Q01DX003 (ip), vehicle: Klucel (hydroxypropylcellulose) (HPC) 96 % of control | dose: 200.0 mg/kg/injection, schedule: Q01DX003 (ip), vehicle: Klucel (hydroxypropylcellulose) (HPC) 91 % of control

CCOCCOC(=O)c1ccc(C(N)=NC2CCCCC2)cc1
inactive: [1] 100 % of control | [2] 102 % of control | [3] 90 % of control

COc1ccc2ccc3ccc(OC)c(OC(C)=O)c3c2c1
inactive: dose: 100.0 mg/kg/injection, schedule: Q01DX001 (ip), vehicle: steriod suspending solution 94 % of control | dose: 200.0 mg/kg/injection, schedule: Q01DX001 (ip), vehicle: steriod suspending solution 105 % of control | dose: 400.0 mg/kg/injection, schedule: Q01DX001 (ip), vehicle: steriod suspending solution 108 % of control

CCOC(=O)C(CSCSC)NC(=O)/C=C/c1cccnc1 (centres undefined)
inactive: [4] 101 % of control | dose: 100.0 mg/kg/injection, schedule: Q04DX003 (ip), vehicle: saline with Tween-80 93 % of control | [6] 98 % of control | dose: 200.0 mg/kg/injection, schedule: Q04DX003 (ip), vehicle: saline with Tween-80 97 % of control | [8] 90 % of control | dose: 400.0 mg/kg/injection, schedule: Q04DX003 (ip), vehicle: saline with Tween-80 90 % of control

O=C(Nc1cc(Cl)c(Oc2ccc(Cl)cc2)cc1S(=O)(=O)O)Nc1cccc(Cl)c1Cl
inactive: dose: 50.0 mg/kg/injection, schedule: Q01DX009 (ip), vehicle: Klucel (hydroxypropylcellulose) (HPC) 109 % of control | dose: 100.0 mg/kg/injection, schedule: Q01DX009 (ip), vehicle: Klucel (hydroxypropylcellulose) (HPC) 104 % of control

Cc1nc(N)c2nc(-c3ccc(N(CCCl)CCCl)cc3)c(N)nc2n1
inactive: [1] 96 % of control | [2] 96 % of control | [3] 96 % of control

COc1ccccc1N=Nc1c(O)[nH]c2ccccc12
inactive: [1] 96 % of control | [2] 96 % of control | [3] 102 % of control

CN(N=O)C(=O)NCCc1ccc(OC(=O)N(C)N=O)cc1
inactive: dose: 0.78 mg/kg/injection, schedule: Q01DX Z (ip), vehicle: carboxymethylcellulose (CMC) 98 % of control | dose: 1.56 mg/kg/injection, schedule: Q01DX Z (ip), vehicle: carboxymethylcellulose (CMC) 110 % of control | dose: 3.12 mg/kg/injection, schedule: Q01DX Z (ip), vehicle: carboxymethylcellulose (CMC) 95 % of control | dose: 6.25 mg/kg/injection, schedule: Q01DX Z (ip), vehicle: carboxymethylcellulose (CMC) 113 % of control | dose: 12.5 mg/kg/injection, schedule: Q01DX Z (ip), vehicle: carboxymethylcellulose (CMC) 118 % of control | dose: 25.0 mg/kg/injection, schedule: Q01DX Z (ip), vehicle: carboxymethylcellulose (CMC) 124 % of control | dose: 50.0 mg/kg/injection, schedule: Q01DX Z (ip), vehicle: carboxymethylcellulose (CMC) 91 % of control

O=C1/C(=C\c2ccccc2)OC(c2ccccc2)O/C1=C/c1ccccc1 (centres undefined)
inactive: dose: 100.0 mg/kg/injection, schedule: Q01DX009 (ip), vehicle: saline 91 % of control | [5] 91 % of control | dose: 200.0 mg/kg/injection, schedule: Q01DX009 (ip), vehicle: saline 98 % of control | [7] 96 % of control | dose: 400.0 mg/kg/injection, schedule: Q01DX009 (ip), vehicle: saline 88 % of control | [9] 98 % of control

ClCCN(CCCl)CCCNCCCNc1c2ccccc2nc2c1ccc1ccccc12
inactive: dose: 0.08 mg/kg/injection, schedule: Q01DX Z (ip), vehicle: saline 102 % of control | dose: 0.16 mg/kg/injection, schedule: Q01DX Z (ip), vehicle: saline 106 % of control | dose: 0.31 mg/kg/injection, schedule: Q01DX Z (ip), vehicle: saline 110 % of control | dose: 0.62 mg/kg/injection, schedule: Q01DX Z (ip), vehicle: saline 112 % of control | dose: 1.25 mg/kg/injection, schedule: Q01DX Z (ip), vehicle: saline 102 % of control | dose: 2.5 mg/kg/injection, schedule: Q01DX Z (ip), vehicle: saline 97 % of control

O=S1(=O)Cc2ccccc2-c2ccccc2C1
inactive: dose: 100.0 mg/kg/injection, schedule: Q04DX002 (ip), vehicle: gum acacia 103 % of control | dose: 200.0 mg/kg/injection, schedule: Q04DX002 (ip), vehicle: gum acacia 103 % of control | dose: 400.0 mg/kg/injection, schedule: Q04DX002 (ip), vehicle: gum acacia 106 % of control

CN(C)CCCNC(=O)Nc1ccc(Cl)cc1
inactive: dose: 100.0 mg/kg/injection, schedule: Q04DX002 (ip), vehicle: other 101 % of control | dose: 200.0 mg/kg/injection, schedule: Q04DX002 (ip), vehicle: other 101 % of control | dose: 400.0 mg/kg/injection, schedule: Q04DX002 (ip), vehicle: other 97 % of control

CN(C)CCSC(CO)c1ccccc1 (centres undefined)
inactive: [10] 96 % of control | [11] 89 % of control | [12] 94 % of control

CCOC(=O)c1[nH]c(-c2ccccc2)c(C=O)c1-c1ccccc1
inactive: dose: 100.0 mg/kg/injection, schedule: Q01DX001 (ip), vehicle: Klucel (hydroxypropylcellulose) (HPC) 100 % of control | dose: 200.0 mg/kg/injection, schedule: Q01DX001 (ip), vehicle: Klucel (hydroxypropylcellulose) (HPC) 100 % of control | dose: 400.0 mg/kg/injection, schedule: Q01DX001 (ip), vehicle: Klucel (hydroxypropylcellulose) (HPC) 100 % of control

CC(=O)OC1CCC2(C)C3=C(CCC2C1(C)C)C1(C)CCC(C(C)CCC2NC2(C)C)C1(C)CC3 (centres undefined)
inactive: dose: 100.0 mg/kg/injection, schedule: Q04DX003 (sc), vehicle: steriod suspending solution 105 % of control | dose: 200.0 mg/kg/injection, schedule: Q04DX003 (sc), vehicle: steriod suspending solution 101 % of control | dose: 400.0 mg/kg/injection, schedule: Q04DX003 (sc), vehicle: steriod suspending solution 105 % of control

CC(C)(C)OC(=O)NC1CCCCC1
inactive: dose: 100.0 mg/kg/injection, schedule: Q04DX002 (ip), vehicle: saline with Tween-80 111 % of control | dose: 200.0 mg/kg/injection, schedule: Q04DX002 (ip), vehicle: saline with Tween-80 101 % of control | dose: 400.0 mg/kg/injection, schedule: Q04DX002 (ip), vehicle: saline with Tween-80 104 % of control

Nc1nc(N)c2nc(COc3ccc(C(=O)NC(CCC(=O)O)C(=O)O)cc3)cnc2n1 (centres undefined)
inactive: dose: 0.5 mg/kg/injection, schedule: Q01DX009 (ip), vehicle: sodium bicarbonate 122 % of control | dose: 0.8 mg/kg/injection, schedule: Q01DX009 (ip), vehicle: sodium bicarbonate 122 % of control | dose: 2.5 mg/kg/injection, schedule: Q01DX009 (ip), vehicle: sodium bicarbonate 122 % of control | dose: 5.0 mg/kg/injection, schedule: Q01DX009 (ip), vehicle: sodium bicarbonate 100 % of control and 90 % of control

CCOC(=O)C(=CNc1cccc(C)n1)C(=O)OCC
inactive: [4] 100 % of control | [6] 102 % of control | [8] 100 % of control
